Source: ChEMBL document CHEMBL1143461, “Trifluoroethylamines as amide isosteres in inhibitors of cathepsin K” (Bioorg Med Chem Lett, 2005)

Key:
[1] = molecular target: T1, Cathepsin K (Homo sapiens) (UniProt P43235); assay: pKa value determined against cathepsin K from humanized rabbit enzyme; conditions: Oryctolagus cuniculus
T1 sequence (whole entry): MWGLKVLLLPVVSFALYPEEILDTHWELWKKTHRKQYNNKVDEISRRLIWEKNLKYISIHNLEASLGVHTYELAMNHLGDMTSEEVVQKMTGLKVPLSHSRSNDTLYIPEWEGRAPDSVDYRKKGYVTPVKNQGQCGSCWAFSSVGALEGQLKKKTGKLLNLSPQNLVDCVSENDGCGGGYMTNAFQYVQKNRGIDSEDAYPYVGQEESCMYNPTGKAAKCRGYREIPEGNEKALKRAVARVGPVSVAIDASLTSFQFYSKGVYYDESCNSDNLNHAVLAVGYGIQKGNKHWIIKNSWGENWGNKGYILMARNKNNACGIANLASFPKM

Cathepsin K [2] = molecular target: T2, Cathepsin K (Homo sapiens, UniProt P43235); assay: Inhibitory activity against cathepsin K using humanized rabbit enzyme; parameters: species or system Oryctolagus cuniculus
Cathepsin S = Cathepsin S (Homo sapiens, UniProt P25774); assay: Inhibitory activity against cathepsin S from human
Cathepsin S, sequence (P25774 whole entry): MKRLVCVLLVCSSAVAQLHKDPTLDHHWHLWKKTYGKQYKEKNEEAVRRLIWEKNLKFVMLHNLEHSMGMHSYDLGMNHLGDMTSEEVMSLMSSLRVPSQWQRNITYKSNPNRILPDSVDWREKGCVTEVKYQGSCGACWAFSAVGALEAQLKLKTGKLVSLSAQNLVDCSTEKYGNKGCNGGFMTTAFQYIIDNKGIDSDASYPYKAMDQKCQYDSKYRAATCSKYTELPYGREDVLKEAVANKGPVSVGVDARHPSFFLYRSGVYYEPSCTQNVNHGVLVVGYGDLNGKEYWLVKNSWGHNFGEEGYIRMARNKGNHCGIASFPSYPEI

Procathepsin L = Procathepsin L (Homo sapiens, UniProt P07711); assay: Inhibitory activity against cathepsin L from human
Procathepsin L, sequence (P07711 whole entry): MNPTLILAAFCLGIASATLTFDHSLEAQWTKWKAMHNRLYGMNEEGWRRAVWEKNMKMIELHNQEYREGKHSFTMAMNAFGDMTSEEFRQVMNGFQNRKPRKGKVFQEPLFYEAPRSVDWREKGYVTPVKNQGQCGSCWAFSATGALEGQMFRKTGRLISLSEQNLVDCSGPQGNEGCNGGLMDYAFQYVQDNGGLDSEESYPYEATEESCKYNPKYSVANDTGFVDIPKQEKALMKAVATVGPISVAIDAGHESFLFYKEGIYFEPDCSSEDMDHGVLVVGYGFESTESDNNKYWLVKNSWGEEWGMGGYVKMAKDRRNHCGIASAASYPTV

Cathepsin B = Cathepsin B (Homo sapiens, UniProt P07858); assay: Inhibitory activity against cathepsin B from human
Cathepsin K [3] = molecular target: T2, Cathepsin K; assay: Inhibitory activity against cathepsin K (10 pM) using humanized rabbit enzyme; parameters: species or system Oryctolagus cuniculus
Cathepsin K [4] = molecular target: T2, Cathepsin K; assay: Inhibitory activity against cathepsin K from humanized rabbit enzyme; parameters: species or system Oryctolagus cuniculus

pKa [1] | IC50 (Cathepsin K [2]) [nM] | IC50 (Cathepsin S) [nM] | IC50 (Procathepsin L) [nM] | IC50 (Cathepsin B) [nM] | IC50 (Cathepsin K [3]) [nM] | IC50 (Cathepsin K [4]) [nM] | Structure (SMILES)
6.7 | 988 |  |  |  |  |  | CC(C)C[C@H](NC(C)c1ccc(Br)cc1)C(=O)NCC#N (stereo partly drawn)
 |  | 451 | 47 | 1110 | ≤ 0.005 |  | CC(C)C[C@H](N[C@@H](c1ccc(-c2ccc(N3CCNCC3)cc2)cc1)C(F)(F)F)C(=O)NCC#N
 | 11 |  |  |  |  |  | CC(C)C[C@@H](C(=O)NCC#N)c1cccc(-c2ccc(N3CCNCC3)cc2)c1
 | 5 | > 10000 | > 10000 | > 10000 |  |  | N#CCNC(=O)C1(NC(c2ccc(-c3ccc(N4CCNCC4)cc3)cc2)C(F)(F)F)CCCCC1 (stereo not drawn)
1.8 | 2.4 |  |  |  |  |  | CC(C)C[C@H](NC(c1ccc(Br)cc1)C(F)(F)C(F)(F)F)C(=O)NCC#N (stereo partly drawn)
4.6 | 2.5 |  |  |  |  |  | CC(C)C[C@H](NC(c1ccc(Br)cc1)c1ccc(S(C)(=O)=O)cc1)C(=O)NCC#N (stereo partly drawn)
 | 0.4 | > 10000 | 2270 | 614 |  |  | N#CCNC(=O)C1(NC(=O)c2ccc(-c3ccc(N4CCNCC4)cc3)cc2)CCCCC1
 | 4.6 | 902 | 68 | > 10000 |  |  | CC(C)CC(NC(c1ccc(-c2ccc(N3CCNCC3)cc2)cc1)C(F)(F)F)C(=O)NCC#N (stereo not drawn)
1.3 | 1.3 | 121 | 34 | 3350 |  | 0.9 | CC(C)C[C@H](NC(c1ccc(Br)cc1)C(F)(F)F)C(=O)NCC#N (stereo partly drawn)
6.7 | 802 |  |  |  |  |  | CC(C)C[C@H](NCc1ccc(Br)cc1)C(=O)NCC#N
 | 1 |  |  |  |  |  | CC(C)C[C@H](Nc1cscc1-c1ccc(N2CCNCC2)cc1)C(=O)NCC#N
0.7 | 30 |  |  |  |  |  | CC(C)C[C@H](NC(C#N)c1ccc(Br)cc1)C(=O)NCC#N (stereo partly drawn)
 | 0.6 | > 10000 | 3900 | 1050 |  |  | CN1CCN(c2nc(-c3ccc(C(=O)NC4(C(=O)NCC#N)CCCCC4)cc3)cs2)CC1
